In patent publication US8592436B2, “Arylamide pyrimidone derivatives” (Sanofi, priority 2007, dated 2013) one finds IC50 and melting point data, which are given here for one compound.

pIC50: −log10 of the molar value.

The target in one series is GSK3β (Homo sapiens, UniProt P49841). The experiment in a line: Inhibitory activity against GSK3β (33P-ATP phosphorylation of prephosphorylated GS1 peptide, two protocols). The settings on record: protocol used not stated. The format is biochemical. Here is the method:
Two different protocols can be used. In a first protocol: 7.5 μM of prephosphorylated GS1 peptide and 10 μM ATP (containing 300,000 cpm of ^33P-ATP) were incubated in 25 mM Tris-HCl, pH 7.5, 0.6 mM DTT, 6 mM MgCl2, 0.6 mM EGTA, 0.05 mg/ml BSA buffer for 1 hour at room temperature in the presence of GSK3beta (total reaction volume: 100 microliters). In a second protocol: 4.1 μM of prephosphorylated GS1 peptide and 42 μM ATP (containing 260,000 cpm ^33P-ATP) were incubated in 80 mM Mes-NaOH, pH 6.5, 1 mM Mg acetate, 0.5 mM EGTA, 5 mM 2-mercaptoethanol, 0.02% Tween 20, 10% glycerol buffer for 2 hours at room temperature in the presence of GSK3beta. Inhibitors were solubilized in DMSO (final solvent concentration in the reaction medium, 1%). The reaction was stopped with 100 microliters of a solution made of 25 g polyphosphoric acid (85% P2O5), 126 ml 85% H3PO4, H2O to 500 ml and then diluted to 1:100 before use. An aliquot of the reaction mixture was then transferred to Whatman P81 cation exchange filters and rinsed with the solution described above. Incorporated ^33P radioactivity was determined by liquid scintillation spectrometry. The phosphorylated GS-1 peptide had the following sequence: NH2-[…](P)EDEE-COOH. SEQ ID NO: 1 (Woodgett, J. R. (1989) Analytical Biochemistry 180, 237-241.

GSK3β, sequence (P49841 whole entry): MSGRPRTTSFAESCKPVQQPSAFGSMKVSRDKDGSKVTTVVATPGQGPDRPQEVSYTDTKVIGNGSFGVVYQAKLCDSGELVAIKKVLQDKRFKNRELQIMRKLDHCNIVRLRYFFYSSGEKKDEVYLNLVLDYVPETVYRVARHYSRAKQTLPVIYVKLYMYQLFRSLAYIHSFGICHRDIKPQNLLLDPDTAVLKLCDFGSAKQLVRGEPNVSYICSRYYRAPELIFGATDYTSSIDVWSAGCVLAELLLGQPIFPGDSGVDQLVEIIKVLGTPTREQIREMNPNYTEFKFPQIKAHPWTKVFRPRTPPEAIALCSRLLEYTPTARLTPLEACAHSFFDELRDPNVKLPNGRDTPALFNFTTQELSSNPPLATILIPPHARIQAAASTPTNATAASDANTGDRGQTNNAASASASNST

In general, pIC50 refers to −log10 of the IC50, conventionally taken in molar units. As usually defined, the melting point is the temperature of the solid-liquid transition. `COc1ccccc1C(=O)NCc1nc(-c2ccncn2)cc(=O)n1C` [compound 1, 2-Methoxy-N-(1-methyl-6-oxo-1,6-dihydro-[4,4′]bipyrimidinyl-2-ylmethyl)-benzamide]: the melting point was 239 to 241 °C. The pIC50 at GSK3β was 7.64.
